Read-outs that look alike come from different tables or passages of the source.
Columns and labels:
NCI-H1373 cells = test: Anchorage-independent cell proliferation inhibitory action, NCI-H1373 spheroid three-dimensional culture; type: cell-based, Human; settings: Homo sapiens, NCI-H1373, 144 h, read-out: IC50 (anchorage-independent cell proliferation inhibition)
In short: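 KRAS G12C NCI-H1373 cells were grown as spheroids in low-attachment U-bottom wells and treated the next day with compound, six points from 1,000 to 0.3 nM final. After six days at 37°C, viability was read by CellTiter-Glo luminescence. IC50 was fitted by Sigmoid-Emax regression, with DMSO set as 0% and cell-free medium as 100% inhibition.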

[1] = molecular target: T1, KRAS G12C/SOS/c-Raf complex (Homo sapiens, UniProt P01116, G12C); test: KRAS G12C/SOS/c-Raf complex formation inhibitory action (TR-FRET); type: biochemical; settings: one hour at room temperature, read-out: IC50 (KRAS G12C/SOS/c-Raf complex formation inhibition)
T1 construct: Biotinylated AviTag-KRAS G12C (amino acid region 1-185, GDP)
In short: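 Biotin-AviTag KRAS G12C (1-185, GDP-bound) was mixed with compound (4,000 to 4 nM stock dilutions), SOS (564-1049), GST-c-Raf (51-131) and GTP in pH 7.4 HEPES/NaCl/MgCl2/Tween buffer for 1 h at room temperature. Complex formation was read by TR-FRET with Eu-streptavidin and ULight-anti-GST (ex 337 nm, em 620/665 nm).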

pERK in NCI-H1373 tumor = test: Intratumoral pERK inhibitory action in NCI-H1373 tumor of nude mice (TR-FRET); type: in vivo, mouse; settings: Mus musculus, 6 h, tumor six hours after administration
Method: Evaluation of Intratumoral pERK Inhibitory Action
The phosphorylation amount of ERK in tumor sample after administration of test compound was examined by using pERK measurement kit (Advanced ERK phospho-T202/Y204 kit, Cisbio co., Ltd) through a TR-FRET method.
2.0 to 5.0×10^6 NCI-H1373 cells were prepared by using a solution in which an equivalent amount of Matrigel (Becton. Dickinson and Company) was added to PBS, were injected subcutaneously in a volume of 100 μL and planted to male nude mice of 4-5 weeks old (CAnN.Cg-Foxn 1 nu/CrlCrlj (nu/nu), Charles River Laboratories Japan, Inc.), and then the male nude mice were used for the test 15 to 26 days later. The test was conducted with three mice in a solvent group and three mice in a test compound administration group, and the test compounds were prepared by using a solvent such that the dosage thereof is as indicated in Table 4. The test compound was administered subcutaneously or orally. For subcutaneous administration, physiological saline supplemented with equimolar hydrochloric acid was used as a solvent. For oral administration, 6% 2-hydroxypropyl-β-cyclodextrin (Sigma-Aldrich Co. LLC) was used as a solvent. Six hours after the administration, a tumor was excised from a cervical dislocated mouse under isoflurane anesthesia, and a part thereof was put into a 2 mL Eppendorf tube and frozen using liquid nitrogen. The tumor sample was stored in a deep freezer at −80° C. until it was subjected to the pERK measurement test.
500 μL of lysis buffer 1 (Phospholysis buffer [Cisbio Co., Ltd], Complete EDTA free [Roche Diagnostics K.K.], Phosphatase inhibitor cocktail 2 [Sigma-Aldrich Co. LLC]) and one bead (5 mm YTZ ball [Nikkato Corp.]) was added to the tumor sample, and crushed (frequency 25/s for 3 minutes) by using Tissue Lyser II (QIAGEN GmbH). The whole amount was transferred to a new tube and centrifuged (20,400×g for 10 minutes, 4° C.) by using a micro amount high speed cooling centrifuge so as to obtain a tumor lysate which is a supernatant. Protein quantification of tumor lysate was performed by using a protein quantification kit (Pierce 660 nm Protein Assay Kit [Thermo Fisher Scientific Inc.]), and each sample was diluted by using lysis buffer 2 (Phosphorysis buffer [Cisbio Co., Ltd], Blocking Agent [attached to pERK measurement kit]) such that the amount thereof is to be a final concentration of 0.5 μg/μL.
Each of p-ERK1/2 Cryptate antibody and p-ERK1/2 d2 antibody (attached to pERK measurement kit) was diluted 20-fold with each detection buffer (attached to pERK measurement kit), and thereby a mixed solution of these two types of antibodies was prepared. A mixed solution of antibody was added to a 384 well plate at a volume of 4 μL/well. Further, tumor lysate diluted to 0.5 μg/μL was added at a volume of 16 μL/well. After standing at room temperature in a wet box for about 17 hours, the fluorescence intensity at 620 nm and 665 nm was measured under the condition of excitation wavelength of 337 nm by using EnVision 2103 Multilabel Reader (PerkinElmer Co., Ltd.).

[2] = tested on: ERK phosphorylation (Thr 202/Tyr 204) in NCI-H1373 cells; test: ERK phosphorylation inhibitory action in NCI-H1373 (Cell ELISA); type: cell-based, Human; settings: Homo sapiens, NCI-H1373, 2 h, read-out: IC50 (ERK phosphorylation inhibition)
In short: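 KRAS G12C NCI-H1373 cells (2×10^4/well) were treated with compound (six points, 1,000–0.3 nM final) for 2 h. Phospho-ERK Thr202/Tyr204 was measured by in-cell ELISA with an IRDye 800CW secondary antibody. IC50 was fitted by sigmoid-Emax regression against DMSO (0%) and 1 μM trametinib (100%).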

[3] = NCI-H1373 spheroid, six days, CellTiter Glo
[4] = NCI-H1373 cells, cultured for 2 hours, 100% = 1 μM Trametinib

T1 sequence (P01116 1-185 isoform P01116-2 G12C, one chain of several): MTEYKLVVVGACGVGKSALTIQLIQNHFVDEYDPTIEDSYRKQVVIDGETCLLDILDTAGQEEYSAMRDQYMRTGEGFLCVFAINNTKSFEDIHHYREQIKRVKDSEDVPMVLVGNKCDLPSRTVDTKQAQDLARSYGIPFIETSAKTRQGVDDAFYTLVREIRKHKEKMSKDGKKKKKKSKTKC

SMILES | IC50 (NCI-H1373 cells; [3]) [nM] | IC50 [1] [nM] | IC50 [2, 4] [nM] | inhibition at 10 mg/kg (pERK in NCI-H1373 tumor; NCI-H1373, po, Oral administration, 10 mg/kg) [%] | inhibition at 3 mg/kg (pERK in NCI-H1373 tumor; NCI-H1373, sc, Subcutaneous administration, 3 mg/kg, read-out: pERK inhibition (%)) [%] | IC50 [2] [nM] | IC50 (NCI-H1373 cells) [nM]
C=CC(=O)N1CC2(CCN(c3nc(OC4CCN(CC(C)(C)O)CC4)nc4c(OCC(F)(F)F)c(-c5c(C)ccc6[nH]ncc56)c(C=C)cc34)CC2)C1 [Ex 31] | 8.3 | 45 |  | 51 |  |  | 
C=CC(=O)N1CC2(CCN(c3nc(OC4CCN(CCCOC(F)(F)F)CC4)nc4c(OCC(F)(F)F)c(-c5c(C)ccc6[nH]ncc56)c(C=C)cc34)CC2)C1 [Example 83] | 51 | 108 | 16 |  |  |  | 
C=CC(=O)N1CC2(CCN(c3nc(OC4CCN(CCN5CCOCC5)CC4)nc4c(OCC(F)(F)F)c(-c5c(C)ccc6[nH]ncc56)c(C5CC5)cc34)CC2)C1 [Example 45] |  | 38 |  |  |  | 5.2 | 7.3
C=CC(=O)N1CC2(CCN(c3nc(OC4CCN(C)CC4)nc4c(OCC(C)C)c(-c5c(C)ccc6[nH]ncc56)c(C=C)cc34)CC2)C1 [Example 74] | 21 | 50 | 15 |  |  |  | 

Further molecules by falling IC50 [1], results first:

IC50 (NCI-H1373 cells; [3]) [nM] | IC50 [1] [nM] | IC50 [2, 4] [nM] | SMILES | inhibition at 10 mg/kg (pERK in NCI-H1373 tumor; NCI-H1373, po, Oral administration, 10 mg/kg) [%] | inhibition at 3 mg/kg (pERK in NCI-H1373 tumor; NCI-H1373, sc, Subcutaneous administration, 3 mg/kg, read-out: pERK inhibition (%)) [%] | IC50 [2] [nM] | IC50 (NCI-H1373 cells) [nM]
18 | 43 | 11 | C=CC(=O)N1CC2(CCN(c3nc(OC4CCN(CCN(CC)CC)CC4)nc4c(OCC(F)(F)F)c(-c5c(C)ccc6[nH]ncc56)c(C=C)cc34)CC2)C1 [Example 67] |  |  |  | 
9.8 | 37 | 6.8 | C=CC(=O)N1CC2(CCN(c3nc(OC4CCN(CCOC)CC4)nc4c(OC(F)F)c(-c5c(C)ccc6[nH]ncc56)c(C=C)cc34)CC2)C1 [Example 53] |  |  |  | 
 | 31 |  | C=CC(=O)N1CC2(CCN(c3nc(OC4CCN(C)CC4)nc4c(OCC)c(-c5c(C)ccc6[nH]ncc56)c(C=C)cc34)CC2)C1 [Ex 5] |  | 72 |  | 

Source: US10774082B2, “Quinazoline compound” (Astellas Pharma Inc., priority 2017, dated 2020)
